# System: AM141 worm
# Test: polyQ40 aggregation in AM141 worms
# Type: in vivo, C. elegans
# Settings: dose dependent
# From the text: FIG. 21, panels A-F: AIC106 prevents neuronal loss and proteotoxicity in strains expressing human neurotoxic proteins. Panel A) Dopaminergic neuronal loss in day-5 UA44 worms was quantified by scoring percentage of worms with intact 4-CEP neurons in AIC106 and DMSO-control treatment. [N=3 independent experiments (mean±SD). ***p<0.001, by one-way ANOVA with Tukey's multiple comparisons test]. Motor function in (panel B) day-7 NL5901 and (panel C) day-5 CL2006 worms were quantified by scoring number of thrashes for an individual worm over the period of 30 seconds (dots) in AIC106 and DMSO-control treatment. […] Panel D) Motor function in temperature sensitive (enhanced paralysis at 25° C.) CL4176 worms was determined by scoring percent of worms paralyzed in AIC106 and DMSO-control treatment. […] P-value calculated by Logrank test]. Panel F) Effect of AIC106 on polyQ40 aggregation was determined by scoring number of polyQ40-YFP fluorescent puncta in an individual AM141 worm treated with AIC106 and DMSO-control. […]
# Synchronized populations of day-1 adult worms expressing reporter GFP transgene or stained with a dye/stain (Lysotracker and TMRM) and grown at 20° C. were transferred to compound or DMSO plates. Fluorescence expression was analyzed at the time specified for each individual strain (see figure legends). […] Fluorescence intensity normalized to worm area was measured using NIH ImageJ software. […]
structure (smiles),measurement,value
"O=c1oc2c3c4c(cc2c2c1CCC2)CCCN4CCC3 [C1, 2,3,6,7,10,11-Hexahydro-1H,5H-cyclopenta(3,4)(1)benzopyrano(6,7,8-ij)quinolizin-12(9H)-one]",poly-Q40 aggregates,significantly decreased poly-Q40 aggregates
